Test results as given in publication PMC11249012 (Journal of Medicinal Chemistry, 2024).

Columns and labels:
[1] = system: macrophage infiltration into 4T1 tumors; assay: Immunofluorescence of macrophages in 4T1 tumors (F4/80, Arg1); type: in vivo, mouse
Experimental: Inhibition of PD-L1 and CD80/CD86 is directly achieved through the immune checkpoint blockade of their receptors using anti-CTLA-4 and anti-PD-1 antibodies.[69],[70]
Primary tumor tissues were fixed using 4% paraformaldehyde and subsequently dehydrated in sucrose solutions ranging from 10 to 30% for approximately 24 h each. The tissues were then embedded in base molds (Fisherbrand—#22363553) containing an optimal cutting temperature (OCT) compound (Fisher Healthcare—#4585). The tissue blocks were placed immediately on dry ice until the OCT compound solidified, and then they were stored at −80 °C. Prior to IF staining, sections of 5–10 μm were obtained using a Leica CM3050 S cryostat and SuperFrost Plus slides (Fisherbrand—#1255015). The tumor sections were then incubated with blocking buffer [phosphate-buffered saline containing 2% bovine serum albumin, 0.3% Triton X-100, 1% FBS, and 10% goat serum] for 1 h at RT. To detect macrophages in the TME, the sections were incubated with a pan-macrophage rat monoclonal antibody F4/80 (Abcam—#6640) diluted in blocking buffer overnight at 4 °C. Sixteen hours later, tissues were washed 3 times with 100 mM Tris–HCl and then incubated with a secondary goat antirat antibody (Invitrogen—#A11081) for 1 h at RT. […] Subsequently, 4′,6-diamidino-2-phenylindole (DAPI; Invitrogen—#D3571) was used to counterstain the nuclei for 5 min at RT. Finally, the slides were mounted using Fluoromount-G medium (Invitrogen—#00495802) and coverslips (Fisher Scientific—#12545E) and imaged with a Zeiss LSM 710 confocal microscope with ×20 objective. Quantification was carried out by QuPath software (version 0.3.2). F4/80+ macrophages and F4/80+ Arg1+ M2 macrophages were classified based on their fluorescence signal.

B16-F10 tumors = assay: B16-F10 melanoma model in vivo; design: species or system mouse; conditions: 2 doses of 5 mg/kg 24 h apart; also VDR gene; duplicate tumors from two animals
Experimental: We were then interested in comparing the efficacy of ZG compounds and other hybrids in tumor models in vivo. We focused initially on the B16-F10 melanoma which is syngeneic with C57BL/6 mice. The efficacy of ZG-126 in vivo in this model was tested in two experiments. […] In a second experiment, we compared the antitumor efficacy of hybrids at ∼0.5 MTD doses. […] All treatments were well tolerated, and body weights were unaffected (Figure 6C).
(§1) Finally, mice were sacrificed, and lungs of 4T1-bearing mice were removed to evaluate the efficiency of treatments on lung metastases.

4T1 tumors = assay: 4T1 TNBC model in vivo (primary tumor and lung metastases); design: species or system mouse; conditions: 4T1 model; for #Surface metastases (lung): vehicle 166
Experimental: As 4T1 cells are aggressively metastatic, we can also assess the antimetastatic activity in the same experiment. All treatments were well tolerated, and, as in the B16-F10 model, none induced weight loss or other signs of stress over the course of the experiment (Figure 7A). Treatments reduced the primary tumor burden to varying degrees.
The antimetastatic activity was determined by counting the number of surface lung metastases of duplicate samples using a stereomicroscope. […] This degree of efficacy is remarkable, as in previous experiments, DK-406 reduced the metastatic burden by ∼2-fold.[30]
as §1

HDAC7 = molecular target: T1, HDAC7 (Homo sapiens, UniProt Q8WUI4); assay: Biochemical assay for HDAC inhibition, HDAC7; conditions: read-out: IC50 HDAC7; Table 1, purified enzyme; unit inferred
T1 sequence (Q8WUI4 1-952): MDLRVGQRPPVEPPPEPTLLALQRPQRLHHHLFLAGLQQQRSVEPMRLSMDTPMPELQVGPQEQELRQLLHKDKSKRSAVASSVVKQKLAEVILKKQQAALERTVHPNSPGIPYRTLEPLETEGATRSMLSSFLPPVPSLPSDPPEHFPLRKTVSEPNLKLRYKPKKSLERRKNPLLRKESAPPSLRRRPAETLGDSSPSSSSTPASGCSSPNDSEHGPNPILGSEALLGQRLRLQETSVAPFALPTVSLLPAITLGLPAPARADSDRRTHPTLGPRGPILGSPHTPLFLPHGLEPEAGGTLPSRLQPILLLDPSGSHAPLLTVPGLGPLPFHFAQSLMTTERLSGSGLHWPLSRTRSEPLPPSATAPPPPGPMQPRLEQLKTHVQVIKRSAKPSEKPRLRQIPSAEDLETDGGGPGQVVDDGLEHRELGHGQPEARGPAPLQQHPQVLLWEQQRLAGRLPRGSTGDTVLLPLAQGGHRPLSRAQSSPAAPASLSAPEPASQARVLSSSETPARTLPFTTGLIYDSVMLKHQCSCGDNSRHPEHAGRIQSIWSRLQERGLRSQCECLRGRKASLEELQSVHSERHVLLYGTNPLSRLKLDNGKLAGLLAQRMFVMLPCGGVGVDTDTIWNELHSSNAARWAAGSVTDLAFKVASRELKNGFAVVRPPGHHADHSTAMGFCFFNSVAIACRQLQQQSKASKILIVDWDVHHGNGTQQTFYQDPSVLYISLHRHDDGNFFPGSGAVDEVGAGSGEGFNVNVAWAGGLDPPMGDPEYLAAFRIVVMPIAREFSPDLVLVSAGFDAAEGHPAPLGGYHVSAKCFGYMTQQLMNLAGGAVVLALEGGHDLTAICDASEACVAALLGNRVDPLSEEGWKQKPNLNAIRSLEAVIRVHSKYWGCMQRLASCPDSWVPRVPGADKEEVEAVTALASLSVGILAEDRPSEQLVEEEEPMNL

HDAC9 = HDAC9 (Homo sapiens, UniProt Q9UKV0); assay: Biochemical assay for HDAC inhibition, HDAC9; conditions: concentrations as high as 100 μM
Sequence of HDAC9 (Q9UKV0 whole entry): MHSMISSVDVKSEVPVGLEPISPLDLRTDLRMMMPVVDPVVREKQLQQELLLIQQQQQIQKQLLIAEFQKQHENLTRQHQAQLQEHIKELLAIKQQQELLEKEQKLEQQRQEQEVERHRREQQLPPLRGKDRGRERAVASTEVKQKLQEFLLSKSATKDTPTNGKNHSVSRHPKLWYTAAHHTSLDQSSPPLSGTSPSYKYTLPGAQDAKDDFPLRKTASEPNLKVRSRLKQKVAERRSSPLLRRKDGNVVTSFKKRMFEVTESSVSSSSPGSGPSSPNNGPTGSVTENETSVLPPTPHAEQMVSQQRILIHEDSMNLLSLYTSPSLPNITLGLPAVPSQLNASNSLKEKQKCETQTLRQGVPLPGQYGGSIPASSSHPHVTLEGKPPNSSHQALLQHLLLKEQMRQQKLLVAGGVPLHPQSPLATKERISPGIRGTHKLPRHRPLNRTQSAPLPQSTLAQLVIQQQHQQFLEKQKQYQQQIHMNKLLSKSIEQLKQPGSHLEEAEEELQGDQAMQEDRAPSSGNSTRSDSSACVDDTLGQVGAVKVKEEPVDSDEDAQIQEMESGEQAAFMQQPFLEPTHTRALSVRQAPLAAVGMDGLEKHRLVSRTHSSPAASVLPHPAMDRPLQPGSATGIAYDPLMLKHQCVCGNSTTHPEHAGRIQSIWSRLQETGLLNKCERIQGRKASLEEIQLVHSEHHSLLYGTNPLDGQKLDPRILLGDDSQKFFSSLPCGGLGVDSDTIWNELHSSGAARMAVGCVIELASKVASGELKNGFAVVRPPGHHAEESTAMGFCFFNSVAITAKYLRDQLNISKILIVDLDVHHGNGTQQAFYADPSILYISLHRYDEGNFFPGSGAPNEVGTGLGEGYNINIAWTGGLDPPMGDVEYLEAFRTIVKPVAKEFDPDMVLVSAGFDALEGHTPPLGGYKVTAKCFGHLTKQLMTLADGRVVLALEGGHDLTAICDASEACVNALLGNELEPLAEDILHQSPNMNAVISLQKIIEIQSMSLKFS

in vivo = conditions: BALB/c, mouse, ip

CCC(CC)(c1ccc(C(=O)NCCCCC(=O)NO)cc1)c1ccc(OCC(O)C(C)(C)C)c(C)n1 (stereo not drawn) [ZG-126, 4-(3-(5-(2-Hydroxy-3,3-dimethylbutoxy)-6-methylpyridin-2-yl)pentan-3-yl)-N-(5-(hydroxyamino)-5-oxopentyl)benzamide]
reduction of the proportion of M2-polarized immunosuppressive macrophages ([1]; 4T1 tumors): 2 fold
total macrophage infiltration into 4T1 tumors (F4/80 staining) ([1]; Figure 8B): significantly reduced
percentage of anti-inflammatory M2 macrophages (Arg1 staining) ([1]; Figure 8C-E): most efficacious at reducing the percentage of anti-inflammatory M2 macrophages
reduction of total macrophage infiltration ([1]; TNBC (4T1) tumors): 2 fold
Cyp24a1 induction in B16-F10 tumors (B16-F10 tumors): robust induction of Cyp24a1
reduction in tumor burden (4T1 tumors; BALB/c mice, ZG-126 high dose 5 mg/kg, statistically significant): ~50%
#Surface metastases (lung) (4T1 tumors; 1,25D 0.25 μg/kg, SAHA 80 mg/kg, AM-193 0.2 mg/kg, ZG-126 high 5.0 mg/kg): 47
#Surface metastases (lung) (4T1 tumors; ZG-126 low 1.5 mg/kg): 126
reduction of surface lung metastases (4T1 tumors; high-dose ZG-126 (5 mg/kg)): ~4 fold
IC50 (HDAC7): 55.4 µM
inhibition of HDAC9 (HDAC9): no or very limited inhibition
MTD (in vivo): 10 mg/kg
